Assay results: paper PMC7823712, “Synthesis and Antiplasmodial Activity of Novel Bioinspired Imidazolidinedione Derivatives” (Biomolecules, 2020)
Values after ≈ are worked out from the molar mass of the structure shown. Values joined by “and” are separate entries in the source; they are usually repeats but may differ in a detail not shown here. Identical values can stand only once. Like-named read-outs stand apart in the source and are kept apart here.

Tests used:
HaCaT cells = experiment: Cytotoxicity assay (MTT) on HaCaT cells; type: cell-based; conditions: Homo sapiens, 48 h
Protocol: HaCaT cells were cultured in DMEM medium with 10% FBS, GlutaMAX™ and antibiotic-antimycotic. Cells were cultured at 37 °C in a humidified atmosphere containing 5% CO2. To evaluate the cytotoxic activity of tested compounds, the MTT assay was used. Cells (5 × 10^3 cells/well) were plated into a 96-multiwell plate and incubated for 24 h, to grow as monolayers. Subsequently, different doses of compounds dissolved in DMSO were added to each well and mixed. Plates were then incubated for 48 h. The culture media with tested samples were then removed, and cells in each well were treated with 50 μL of complete culture medium with MTT. After 4 h of incubation in a cell culture incubator, MTT solution was replaced with DMSO (50 μL/well) and plates were agitated for 5 min to dissolve the formazan salts. Formazan absorbance was measured at 570 nm, with background measured at 630 nm, using an Asys UVM 340 Microplate Reader (Cambridge, UK). Results were expressed as IC50 values, with respect to the control (not treated cells).

Solubility in water = type: physicochemical; conditions: statement in words
[1] = tested on: P. falciparum W2 (CQ-resistant) strain; experiment: P. falciparum drug susceptibility assay (pLDH), W2 strain; type: cell-based, Plasmodium falciparum; conditions: for IC50: Plasmodium falciparum, read-out: P. falciparum IC50 W2; for RI: RI = IC50 CQ resistant P. falciparum strain/IC50 CQ sensitive P. falciparum strain; for SI W2: SI = IC50 HaCaT/IC50 P. falciparum strain
Protocol: Plasmodium falciparum cultures were carried out according to Trager and Jensen, with slight modifications. The CQ-susceptible strain D10 and the CQ-resistant strain W2 were maintained at 5% hematocrit (human type A-positive red blood cells) in RPMI 1640 (EuroClone, Milan, Italy) medium with the addition of 1% AlbuMax (Invitrogen, Milan, Italy), 0.01% hypoxanthine, 20 mM Hepes, and 2 mM glutamine. All the cultures were maintained at 37 °C in a standard gas mixture consisting of 1% O2, 5% CO2, and 94% N2. Compounds were dissolved in DMSO and then diluted with medium to achieve the required concentrations (final DMSO concentration < 1%, which is non-toxic to the parasite). Drugs were placed in 96-well flat-bottomed microplates starting from the concentration of 20 µg/mL and 8 serial two-fold dilutions were made. Asynchronous cultures with parasitaemia of 1–1.5% and 1% final hematocrit were aliquoted into the plates and incubated for 72 h at 37 °C. Parasite growth was determined spectrophotometrically (OD650) by measuring the activity of the parasite lactate dehydrogenase (pLDH), according to a modified version of the method of Makler in control and drug-treated cultures. The antimalarial activity is expressed as 50% inhibitory concentrations (IC50); […]

Hemolysis assay = type: cell-based; conditions: human erythrocyte suspension, fresh human erythrocytes
Protocol: The study protocol was approved by the Bioethics Commission at the Lower Silesian Medical Chamber (1/PNHAB/2018). Hemolytic activity was estimated by the measurement of hemoglobin release from human erythrocyte suspensions after incubation with (5), (6), (7) and (8), as previously described. Compouds dissolved in DMSO were added in a volume corresponding to a final concentration of 20 µg/mL in the sample (DMSO was added in an identical volume). Negative and positive controls were also determined. Hemolysis (H) was calculated according to the following formula:H (%) = [(Asample − Anegative control)/(Apositive control − Anegative control)] × 100(1) where Asample, Anegative control, and Apositive control represent the absorbances of the sample, and negative (erythrocytes in PBS buffer) and positive (erythrocytes in distilled water) controls, respectively.

[2] = tested on: P. falciparum D10 (CQ-sensitive) strain; experiment: P. falciparum drug susceptibility assay (pLDH), D10 strain; type: cell-based, Plasmodium falciparum; conditions: for IC50: Plasmodium falciparum, read-out: P. falciparum IC50 D10; for SI D10: SI = IC50 HaCaT/IC50 P. falciparum strain
Protocol: Plasmodium falciparum cultures were carried out according to Trager and Jensen, with slight modifications. […] Drugs were placed in 96-well flat-bottomed microplates starting from the concentration of 20 µg/mL and 8 serial two-fold dilutions were made. […] Parasite growth was determined spectrophotometrically (OD650) by measuring the activity of the parasite lactate dehydrogenase (pLDH), according to a modified version of the method of Makler in control and drug-treated cultures.

W2 strain = tested on: W2 strain; parameters: method as in PMID 16190773; conditions: cited from earlier work
[3] = tested on: chloroquine-resistant Dd2 strain; parameters: method as in PMID 25797165; conditions: compared with 3D7; cited from earlier work
[4] = tested on: Plasmodium falciparum 3D7; parameters: method as in PMID 25797165; conditions: read-out: IC50 against Plasmodium falciparum 3D7; cited from earlier work
[5] = tested on: FcM29-Cameroon, a high chloroquine-resistant strain of P. falciparum; parameters: method as in PMID 21612900; conditions: cited from earlier work
[6] = W2 (CQ-resistant), 72 h, pLDH, IC50 expressed in µM
[7] = D10 (CQ-sensitive), 72 h, pLDH, IC50 expressed in µM

IC50 [1, 6] [µM]	IC50 ([1]; W2 (CQ-resistant), 72 h, pLDH) [mg/L]	IC50 [2, 7] [µM]	IC50 ([2]; D10 (CQ-sensitive), 72 h, pLDH) [mg/L]	Structure (SMILES)	IC50 (HaCaT cells) [mg/L]	IC50 (HaCaT cells; IC50 expressed in µM) [µM]	RI [1]	SI W2 [1]	SI D10 [2]	other results
4.98 ± 0.52	2.42 ± 0.255	12.75 ± 0.02	6.2 ± 0.892	O=C1NC2(CCCc3ccccc32)C(=O)N1CCCCCN1CCN(c2nc3ccccc3[nH]2)CC1 (racemic) [Compound (5), (R,S)-1-(5-(4-(1H-Benzo[d]imidazol-2-yl)piperazin-1-yl)pentyl)-3′,4′-dihydro-2′H-spiro[imidazolidine-4,1′-naphthalene]-2,5-dione]	20.2	41.6 ± 2.43	0.39	8.34	3.26	solubility in water (Solubility in water): low solubility in water; hemolysis at 30 min, 20 µg/mL (Hemolysis assay): 5.6%
10.1 ± 0.2	4.78 ± 0.0974	17.5 ± 1.55	8.27 ± 0.737	O=C1NC2(CCc3ccccc32)C(=O)N1CCCCCN1CCN(c2nc3ccccc3[nH]2)CC1 (racemic) [(6), (R,S)-1-(5-(4-(1H-Benzo[d]imidazol-2-yl)piperazin-1-yl)pentyl)-2′,3′-dihydrospiro[imidazolidine-4,1′-indene]-2,5-dione]	27.4	58 ± 1.48	0.58	5.73	3.31	
12 ± 4.12	5.65 ± 1.95		> 10	O=C1NC2(CCc3ccccc32)C(=O)N1CCCCCN1CCN(C2Cc3ccccc3C2)CC1 (racemic) [(8), (R,S)-1-(5-(4-(2,3-Dihydro-1H-inden-2-yl)piperazin-1-yl)pentyl)-2′,3′-dihydrospiro[imidazolidine-4,1′-indene]-2,5-dione]	22.7	48.1 ± 2.49		4.02		
8.93 ± 1.35	4.35 ± 0.659	19.9 ± 0.29	9.66 ± 0.141	O=C1NC2(CCCc3ccccc32)C(=O)N1CCCCCN1CCN(C2Cc3ccccc3C2)CC1 (racemic) [(7), (R,S)-1-(5-(4-(2,3-Dihydro-1H-inden-2-yl)piperazin-1-yl)pentyl)-3′,4′-dihydro-2′H-spiro[imidazolidine-4,1′-naphthalene]-2,5-dione]	30.5	62.8 ± 2.12	0.45	7.02	3.16	
				CC(C)C1C(=O)C(=O)N/C1=N/C(=N)Nc1ccc(Cl)c(Cl)c1 (stereo not shown) [WR182393]						IC50 for W2 (W2 strain): 2.66469 mg/L
				CCN1C(=O)N(CCC(C)C)C2(CCN(Cc3cc(Cl)ccc3O)CC2)C1=O [CWHM-123, 8-(5-chloro-2-hydroxybenzyl)-3-ethyl-1-isopentyl-1,3,8-triazaspiro[4.5]decane-2,4-dione]						potency on the chloroquine-resistant Dd2 strain [3]: equivalent potency; IC50 [4]: 0.31 µM
				CN1C(=N)N(C)/C(=C/c2c[nH]c3ccccc23)C1=O [Aplysinopsin]						IC50 against FcM29-Cameroon [5]: 0.43 mg/L (≈ 1.69 µM); IC50 ([5]; read-out: IC50 against FcM29-Cameroon): 1.69 µM
				CCN(CC)CCCC(C)Nc1ccnc2cc(Cl)ccc12 (stereo not shown) [CQ, Chloroquine, reference compound]						IC50 ([1]; W2, 72 h): 0.103 µg/mL and 200 nM; IC50 ([2]; D10, 72 h): 0.00764 µg/mL and 10 nM
				CCN1C(=O)N(CCC(C)C)C2(CCN(Cc3cc(Cl)c(Cl)cc3O)CC2)C1=O [CWHM-505]						IC50 [4]: 0.099 µM
